Reference: US10870647B2, “Imidazopyridine derivative, method for preparing same, and pharmaceutical composition containing same as active ingredient for preventing or treating cancer” (DAEGU-GYEONGBUK MEDICAL INNOVATION FOUNDATION, priority 2016, dated 2020)

Experiments:
FGFR4 = target: T1, FGFR4 (Homo sapiens, UniProt P22455); assay: Enzyme inhibitory activity (Kd), Reaction Biology Co.; format: binding
T1 construct: purchased Reaction Biology Co

RET = target: T2, RET (Homo sapiens, UniProt P07949); assay: as above; format: binding
T2 construct: purchased Reaction Biology Co

RET(V804M) = target: T3, RET(V804M) (Homo sapiens, UniProt P07949, V804M); assay: as above; format: binding
T3 construct: purchased Reaction Biology Co

FYN (MCP-1) = assay: Cancer cell proliferation inhibition, MTS assay, 72 hours; format: cell-based
Method in brief: (§1)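 3,000 cells/well, 24 h pre-culture (37° C, 5% CO2); serial dilution of compound, top 50 μM, DMSO 0.05% v/v; 72 h exposure; MTS/PMS 2 h, OD450. IC50 = concentration giving 50% inhibition relative to DMSO control, n = 3 data sets.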

Huh7 = assay: as above; format: cell-based; conditions: Homo sapiens, Huh-7
Method in brief: as §1

RET (LC2/ad-CDC6) = assay: as above; format: cell-based; conditions: 72 h
Method in brief: as §1

Ret^Parental (Ba/F3) = assay: as above; format: cell-based; conditions: Mus musculus, BaF3
Method in brief: as §1

Ret^V804M (Ba/F3) = target: T4, Ret^V804M (Ba/F3) (Homo sapiens, UniProt P07949, V804M, cells depend on it, form not given); assay: as above; format: cell-based; conditions: read-out: Ret^V804M (Ba/F3) IC50
T4 construct: candidates are KIF5B, CCDC6, TEL (ETV6), or none (full-length RET)
Method in brief: as §1

Ret^wt (Ba/F3) = target: T5, Ret^wt (Ba/F3) (Homo sapiens, UniProt P07949); assay: as above; format: cell-based; conditions: read-out: Ret^wt (Ba/F3) IC50
T5 construct: candidates are KIF5B, CCDC6, TEL (ETV6), or none (full-length RET)
Method in brief: as §1

SK-MEL-28 = assay: as above; format: cell-based; conditions: Homo sapiens
Method in brief: as §1

A375 = assay: Cancer cell proliferation inhibition, CCK-8, 72 hours; format: cell-based; conditions: Homo sapiens, A-375, 72 h
Method in brief: (§2)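 A375 cells (2×10^3/well) attached overnight, then received 9 three-fold dilutions (0.0015-10 μM). K562 and Ba/F3-T315I (1×10^4/well) were given 9-point series (3-fold and 5-fold respectively), final 0-10 μM. After 72 h at 37°C, CCK-8 was added for 2 h; blank-subtracted OD450 gave IC50.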

K562 = assay: as above; format: cell-based; conditions: Homo sapiens, K562, 72 h
Method in brief: as §2

T315I (Ba/F3) = target: T6, T315I (Ba/F3) (Homo sapiens, UniProt P00519, T315I, cells depend on it); assay: as above; format: cell-based; conditions: read-out: T315I (Ba/F3) IC50
T6 construct: fused on or other part: P11274 (Breakpoint cluster region protein)
Method in brief: as §2

FYN (FN) = assay: Cancer cell proliferation inhibition, MTS assay, 72 hours; format: cell-based
Method in brief: as §1

T1 sequence (P22455 22-802): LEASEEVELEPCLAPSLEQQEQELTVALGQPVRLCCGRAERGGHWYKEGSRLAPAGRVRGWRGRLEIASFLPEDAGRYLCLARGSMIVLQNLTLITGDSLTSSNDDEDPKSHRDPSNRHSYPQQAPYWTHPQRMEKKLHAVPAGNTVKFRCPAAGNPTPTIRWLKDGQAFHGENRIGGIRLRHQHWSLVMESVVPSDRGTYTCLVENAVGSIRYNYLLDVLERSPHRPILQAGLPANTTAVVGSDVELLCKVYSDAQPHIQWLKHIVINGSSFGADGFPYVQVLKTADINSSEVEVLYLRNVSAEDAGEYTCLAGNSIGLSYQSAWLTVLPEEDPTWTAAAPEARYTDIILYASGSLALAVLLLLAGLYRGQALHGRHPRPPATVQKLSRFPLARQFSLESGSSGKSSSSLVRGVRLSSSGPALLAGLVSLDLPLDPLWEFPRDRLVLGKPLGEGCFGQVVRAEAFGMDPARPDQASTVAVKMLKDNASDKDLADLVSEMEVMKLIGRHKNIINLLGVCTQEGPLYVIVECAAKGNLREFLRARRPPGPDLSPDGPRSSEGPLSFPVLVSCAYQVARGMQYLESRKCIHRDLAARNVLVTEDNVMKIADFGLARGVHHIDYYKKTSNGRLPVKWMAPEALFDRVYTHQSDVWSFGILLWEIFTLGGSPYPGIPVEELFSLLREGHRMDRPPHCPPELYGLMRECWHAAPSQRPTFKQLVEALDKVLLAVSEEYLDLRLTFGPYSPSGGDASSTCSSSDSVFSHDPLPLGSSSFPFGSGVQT
T3 sequence (P07949 29-1114 V804M): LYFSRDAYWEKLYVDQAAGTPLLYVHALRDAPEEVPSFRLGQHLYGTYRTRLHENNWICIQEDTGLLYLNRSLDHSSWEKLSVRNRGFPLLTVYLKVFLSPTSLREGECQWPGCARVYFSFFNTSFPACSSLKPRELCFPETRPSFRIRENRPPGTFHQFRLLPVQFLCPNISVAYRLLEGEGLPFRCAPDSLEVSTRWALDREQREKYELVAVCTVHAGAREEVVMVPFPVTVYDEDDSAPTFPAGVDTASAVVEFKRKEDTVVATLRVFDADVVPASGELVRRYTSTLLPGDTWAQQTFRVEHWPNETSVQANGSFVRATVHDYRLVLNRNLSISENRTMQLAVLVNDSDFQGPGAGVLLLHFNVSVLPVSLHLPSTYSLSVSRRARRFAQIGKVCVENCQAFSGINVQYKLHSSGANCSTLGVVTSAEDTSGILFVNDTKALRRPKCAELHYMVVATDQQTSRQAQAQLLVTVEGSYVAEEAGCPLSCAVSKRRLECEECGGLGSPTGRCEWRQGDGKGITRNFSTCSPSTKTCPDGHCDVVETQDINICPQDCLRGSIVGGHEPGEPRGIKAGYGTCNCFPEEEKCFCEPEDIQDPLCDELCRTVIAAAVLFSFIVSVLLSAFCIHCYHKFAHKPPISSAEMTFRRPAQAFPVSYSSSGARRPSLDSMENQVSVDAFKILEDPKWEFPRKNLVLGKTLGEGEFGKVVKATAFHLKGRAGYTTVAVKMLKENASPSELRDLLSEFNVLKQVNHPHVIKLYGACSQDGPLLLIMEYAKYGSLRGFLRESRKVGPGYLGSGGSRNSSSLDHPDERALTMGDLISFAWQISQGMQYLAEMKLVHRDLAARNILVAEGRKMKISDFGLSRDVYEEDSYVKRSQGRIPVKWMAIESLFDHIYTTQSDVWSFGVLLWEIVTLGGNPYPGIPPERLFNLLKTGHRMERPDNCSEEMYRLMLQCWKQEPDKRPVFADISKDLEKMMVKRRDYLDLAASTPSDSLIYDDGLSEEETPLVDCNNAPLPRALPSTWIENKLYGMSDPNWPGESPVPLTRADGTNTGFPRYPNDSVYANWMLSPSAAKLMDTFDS
T2 sequence (P07949 29-1114): as the sequence (P07949 29-1114 V804M) above, with M776V counted along it
T5 sequence (P07949 whole entry, change not shown): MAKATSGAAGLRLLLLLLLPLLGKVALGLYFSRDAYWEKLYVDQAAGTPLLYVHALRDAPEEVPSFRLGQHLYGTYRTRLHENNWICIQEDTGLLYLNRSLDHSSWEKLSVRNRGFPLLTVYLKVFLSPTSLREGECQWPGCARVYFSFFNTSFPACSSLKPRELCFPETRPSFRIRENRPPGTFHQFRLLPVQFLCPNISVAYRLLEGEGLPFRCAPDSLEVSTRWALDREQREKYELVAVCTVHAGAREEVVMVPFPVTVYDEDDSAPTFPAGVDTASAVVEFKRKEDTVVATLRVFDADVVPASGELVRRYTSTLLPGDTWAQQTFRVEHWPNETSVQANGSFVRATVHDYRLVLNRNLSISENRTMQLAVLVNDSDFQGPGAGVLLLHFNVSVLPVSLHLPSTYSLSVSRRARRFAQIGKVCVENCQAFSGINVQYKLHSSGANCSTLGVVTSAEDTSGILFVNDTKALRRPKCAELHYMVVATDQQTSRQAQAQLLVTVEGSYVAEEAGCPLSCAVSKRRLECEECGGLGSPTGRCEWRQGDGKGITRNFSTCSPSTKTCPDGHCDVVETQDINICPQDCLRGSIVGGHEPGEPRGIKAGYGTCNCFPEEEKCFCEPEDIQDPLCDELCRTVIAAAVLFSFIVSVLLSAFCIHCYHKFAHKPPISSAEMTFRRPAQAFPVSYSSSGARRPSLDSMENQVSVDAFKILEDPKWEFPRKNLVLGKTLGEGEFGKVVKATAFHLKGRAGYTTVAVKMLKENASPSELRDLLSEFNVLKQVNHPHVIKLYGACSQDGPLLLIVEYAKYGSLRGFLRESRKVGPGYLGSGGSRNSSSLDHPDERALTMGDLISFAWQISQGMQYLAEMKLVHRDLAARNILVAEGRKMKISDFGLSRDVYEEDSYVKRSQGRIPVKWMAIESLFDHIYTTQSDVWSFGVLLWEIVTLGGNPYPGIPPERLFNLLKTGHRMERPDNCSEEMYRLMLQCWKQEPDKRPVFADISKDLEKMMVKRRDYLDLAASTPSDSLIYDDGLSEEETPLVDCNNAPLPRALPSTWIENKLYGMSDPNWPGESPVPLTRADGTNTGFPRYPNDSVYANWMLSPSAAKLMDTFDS
T4 sequence (P07949 whole entry V804M, form open): as the sequence (P07949 whole entry, change not shown) above, with V804M counted along it

Structure (SMILES) | Kd (FGFR4) | Kd (RET) | Kd (RET(V804M)) | IC50 (FYN (MCP-1)) | IC50 (Huh7) | IC50 (RET (LC2/ad-CDC6)) | IC50 (Ret^Parental (Ba/F3)) | GI50 (Ret^V804M (Ba/F3)) | GI50 (Ret^wt (Ba/F3)) | IC50 (SK-MEL-28) | IC50 (A375) | IC50 (K562) | GI50 (T315I (Ba/F3)) | IC50 (FYN (FN))
Cc1ccc(C(=O)Nc2ccc(CN3CCN(C)CC3)c(C(F)(F)F)c2)cc1C#Cc1cnc2c(Nc3cnn(C)c3)cccn12 [Example 1, 4-methyl-3-((8-((1-methyl-1H-pyrazol-4-yl)amino)imidazo[1,2-a]pyridin-3-yl)ethynyl)-N-(4-((4-methylpiperazin-1-yl)methyl)-3-(trifluoromethyl)phenyl)benzamide] | 0.056 µM | 0.01 µM | 0.011 µM | 0.73 µM | 0.065 µM | < 0.01 µM | 1.21 µM | 0.005 µM | 0.003 µM | 0.334 µM | 0.026 µM | < 0.001 µM | 0.026 µM | 
CCN1CCN(Cc2ccc(NC(=O)c3ccc(C)c(C#Cc4cnc5c(Nc6cnn(C)c6)cccn45)c3)cc2C(F)(F)F)CC1 [Example 8, N-(4-((4-ethylpiperazin-1-yl)methyl)-3-(trifluoromethyl)phenyl)-4-methyl-3-((8-((1-methyl-1H-pyrazol-4-yl)amino)imidazo[1,2-a]pyridin-3-yl)ethynyl)benzamide] | 0.057 µM | 0.0075 µM | 0.0091 µM | < 1 µM | 0.255 µM |  | 1.32 µM | 0.01 µM | 0.002 µM | 0.586 µM | 0.052 µM | < 0.001 µM | 0.032 µM | < 1 µM
Cc1ccc(C(=O)Nc2cccc(C(F)(F)F)c2)cc1C#Cc1cnc2c(Nc3cnn(C4CCNCC4)c3)cccn12 [Example 11, 4-methyl-3-((8-((1-(piperidin-4-yl)-1H-pyrazol-4-yl)amino)imidazo[1,2-a]pyridin-3-yl)ethynyl)-N-(3-(trifluoromethyl)phenyl)benzamide] |  |  |  | < 0.1 µM | 1.22 µM |  | 2.4 µM | 0.098 µM | 0.005 µM | 1.46 µM | 1.25 µM | < 0.001 µM | 0.00634 µM | < 0.1 µM
Cc1cn(-c2cc(NC(=O)c3ccc(C)c(C#Cc4cnc5c(Nc6cnn(C)c6)cccn45)c3)cc(C(F)(F)F)c2)cn1 [Example 12, 4-methyl-N-(3-(4-methyl-1H-imidazol-1-yl)-5-(trifluoromethyl)phenyl)-3-((8-((1-methyl-1H-pyrazol-4-yl)amino)imidazo[1,2-a]pyridin-3-yl)ethynyl)benzamide] | 0.37 µM | 0.025 µM | 0.032 µM | < 0.1 µM | 0.147 µM | < 0.1 µM |  | 0.054 µM | 0.017 µM | > 10 µM | 0.942 µM | < 0.001 µM | 0.00672 µM | < 0.1 µM
Cc1ccc(NC(=O)C2(C(=O)Nc3ccc(F)cc3)CC2)cc1C#Cc1cnc2c(Nc3cnn(C(C)C)c3)cccn12 [Example 78] |  |  |  |  | 5.12 µM | < 10 µM |  |  |  | 4.55 µM | 4.6 µM | 1.2 µM | 3.24 µM | 
